Data from patent publication US10758534B2 (Vertex Pharmaceuticals Incorporated, priority 2014, dated 2020).

Target: T1, F508del (Homo sapiens, UniProt P13569, DEL508-508)
T1 construct: expressed in transfected cells
Experiment: Protocol 2: FRET membrane potential optical assay (VIPR), identification of correction compounds
Format: cell-based
Conditions: F508del CFTR modulator activity; compounds of Table 1; read-out: EC30
How it was run: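 Mouse NIH3T3 cells, stable F508del; cpd 16 hrs, 37° C., serum-free; pos ctrl 27° C. 16 hrs. Rinse in Krebs Ringers, dye load, then add 10 μM forskolin + 20 μM genistein with Cl^−-free (gluconate) medium; depolarization by FRET voltage dyes.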

T1 sequence (P13569 with tags, fused parts or gaps DEL508-508): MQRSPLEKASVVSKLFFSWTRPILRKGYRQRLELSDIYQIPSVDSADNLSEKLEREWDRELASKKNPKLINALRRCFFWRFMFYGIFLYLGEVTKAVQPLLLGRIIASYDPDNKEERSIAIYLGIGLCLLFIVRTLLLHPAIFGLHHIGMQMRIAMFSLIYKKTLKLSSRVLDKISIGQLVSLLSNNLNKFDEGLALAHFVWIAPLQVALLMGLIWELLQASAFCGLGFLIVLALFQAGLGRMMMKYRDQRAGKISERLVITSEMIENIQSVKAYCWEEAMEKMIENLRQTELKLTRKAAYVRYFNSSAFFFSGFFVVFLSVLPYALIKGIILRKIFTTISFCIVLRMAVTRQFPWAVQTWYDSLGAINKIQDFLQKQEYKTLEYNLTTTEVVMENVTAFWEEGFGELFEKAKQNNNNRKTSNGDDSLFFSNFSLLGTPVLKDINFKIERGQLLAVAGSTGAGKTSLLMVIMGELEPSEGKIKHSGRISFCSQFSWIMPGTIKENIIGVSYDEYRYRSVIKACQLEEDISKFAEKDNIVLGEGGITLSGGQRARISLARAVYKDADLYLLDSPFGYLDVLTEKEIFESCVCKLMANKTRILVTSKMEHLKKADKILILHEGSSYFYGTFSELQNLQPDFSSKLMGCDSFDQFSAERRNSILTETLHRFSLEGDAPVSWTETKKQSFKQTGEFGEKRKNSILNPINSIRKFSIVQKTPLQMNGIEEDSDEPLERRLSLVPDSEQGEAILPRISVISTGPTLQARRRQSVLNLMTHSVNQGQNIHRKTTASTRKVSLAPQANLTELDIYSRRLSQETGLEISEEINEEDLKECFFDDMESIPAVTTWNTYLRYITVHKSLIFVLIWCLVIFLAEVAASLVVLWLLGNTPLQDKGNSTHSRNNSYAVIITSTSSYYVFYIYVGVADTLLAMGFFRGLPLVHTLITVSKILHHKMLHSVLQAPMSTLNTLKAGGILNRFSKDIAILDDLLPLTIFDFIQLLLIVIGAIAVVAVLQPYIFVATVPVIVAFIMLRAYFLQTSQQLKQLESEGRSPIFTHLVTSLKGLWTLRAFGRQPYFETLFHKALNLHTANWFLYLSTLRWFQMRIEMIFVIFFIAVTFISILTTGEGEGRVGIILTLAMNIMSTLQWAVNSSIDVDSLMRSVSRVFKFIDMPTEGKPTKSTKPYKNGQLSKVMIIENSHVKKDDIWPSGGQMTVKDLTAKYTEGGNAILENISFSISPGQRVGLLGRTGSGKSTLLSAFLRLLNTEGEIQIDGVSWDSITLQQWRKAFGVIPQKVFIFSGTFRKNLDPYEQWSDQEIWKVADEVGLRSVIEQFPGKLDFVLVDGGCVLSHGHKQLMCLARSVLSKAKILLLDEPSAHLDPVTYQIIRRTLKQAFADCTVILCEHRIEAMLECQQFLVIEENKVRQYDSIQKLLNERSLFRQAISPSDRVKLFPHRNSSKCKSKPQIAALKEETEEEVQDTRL

CC1CN(c2ncccc2C(=O)NS(=O)(=O)c2cccc(OCc3cccc(F)c3)n2)C(C)(C)C1 (stereo not drawn) [Compound 2409, N—[[6-[(3-fluorophenyl)methoxy]-2-pyridyl]sulfonyl]-2-(2,2,4-trimethylpyrrolidin-1-yl)pyridine-3-carboxamide]
EC30: < 3000 nM

CCOc1ccc(C)cc1-c1ccc(C(=O)NS(=O)(=O)c2ccc[nH]c2=O)c(N2C[C@@H](C)CC2(C)C)n1 [Compound 2410, 6-(2-ethoxy-5-methyl-phenyl)-N-[(2-oxo-1H-pyridin-3-yl)sulfonyl]-2-[(4S)-2,2,4-trimethylpyrrolidin-1-yl]pyridine-3-carboxamide]
EC30: < 3000 nM

COc1cccc(-c2ccc(C(=O)NS(=O)(=O)c3ccccc3)c(N3C[C@@H](C)CC3(C)C)n2)n1 [Compound 2411, N-(benzenesulfonyl)-6-(6-methoxy-2-pyridyl)-2-[(4S)-2,2,4-trimethylpyrrolidin-1-yl]pyridine-3-carboxamide]
EC30: < 3000 nM

CC1CN(c2ncccc2C(=O)NS(=O)(=O)c2cccc(OCC(C)(C)C)n2)C(C)(C)C1 (stereo not drawn) [Compound 2412, N—[[6-(2,2-dimethylpropoxy)-2-pyridyl]sulfonyl]-2-(2,2,4-trimethylpyrrolidin-1-yl)pyridine-3-carboxamide]
EC30: < 3000 nM

COc1ccc(C)cc1-c1ccc(C(=O)NS(=O)(=O)c2cccnc2N)c(N2C[C@@H](C)CC2(C)C)n1 [Compound 2413, N-[(2-amino-3-pyridyl)sulfonyl]-6-(2-methoxy-5-methyl-phenyl)-2-[(4S)-2,2,4-trimethylpyrrolidin-1-yl]pyridine-3-carboxamide]
EC30: < 3000 nM

C[C@@H]1CN(c2nc(-c3cccc(F)c3)ccc2C(=O)NS(=O)(=O)N2CC[C@H](N)C2)C(C)(C)C1 [Compound 2414, N-[(3S)-3-aminopyrrolidin-1-yl]sulfonyl-6-(3-fluorophenyl)-2-[(4S)-2,2,4-trimethylpyrrolidin-1-yl]pyridine-3-carboxamide]
EC30: 3000 to 10000 nM

CC1CN(c2ncccc2C(=O)NS(=O)(=O)c2cccc(OCc3ccc(C(C)C)cc3)n2)C(C)(C)C1 (stereo not drawn) [Compound 2415, N—[[6-[(4-isopropylphenyl)methoxy]-2-pyridyl]sulfonyl]-2-(2,2,4-trimethylpyrrolidin-1-yl)pyridine-3-carboxamide]
EC30: < 3000 nM

C[C@@H]1CN(c2nc(-c3cc(C(F)(F)F)nn3C)ccc2C(=O)NS(=O)(=O)c2cccnc2N)C(C)(C)C1 [Compound 2416, N-[(2-amino-3-pyridyl)sulfonyl]-6-[2-methyl-5-(trifluoromethyl)pyrazol-3-yl]-2-[(4S)-2,2,4-trimethylpyrrolidin-1-yl]pyridine-3-carboxamide]
EC30: < 3000 nM

C[C@@H]1CN(c2nc(C(C)(C)C)c(C3=CCN(C(=O)Cc4ccccc4)CC3)cc2C(=O)NS(=O)(=O)c2cccc(N)n2)C(C)(C)C1 [Compound 2417, N-[(6-amino-2-pyridyl)sulfonyl]-6-tert-butyl-5-[1-(2-phenylacetyl)-3,6-dihydro-2H-pyridin-4-yl]-2-[(4S)-2,2,4-trimethylpyrrolidin-1-yl]pyridine-3-carboxamide]
EC30: < 3000 nM

C[C@@H]1CN(c2nc(-c3cncc4ccccc34)ccc2C(=O)NS(=O)(=O)c2cccnc2N)C(C)(C)C1 [Compound 2418, N-[(2-amino-3-pyridyl)sulfonyl]-6-(4-isoquinolyl)-2-[(4S)-2,2,4-trimethylpyrrolidin-1-yl]pyridine-3-carboxamide]
EC30: < 3000 nM

COc1ccc2nc(N3C[C@@H](C)CC3(C)C)c(C(=O)NS(=O)(=O)c3ccc[nH]c3=O)cc2c1 [Compound 2419, 6-methoxy-N-[(2-oxo-1H-pyridin-3-yl)sulfonyl]-2-[(4S)-2,2,4-trimethylpyrrolidin-1-yl]quinoline-3-carboxamide]
EC30: 3000 to 10000 nM

COc1cccc(Nc2cccc(S(=O)(=O)NC(=O)c3cccnc3N3CC(C)CC3(C)C)n2)n1 (stereo not drawn) [Compound 2420, N—[[6-[(6-methoxy-2-pyridyl)amino]-2-pyridyl]sulfonyl]-2-(2,2,4-trimethylpyrrolidin-1-yl)pyridine-3-carboxamide]
EC30: 3000 to 10000 nM

CC1CN(c2ncccc2C(=O)NS(=O)(=O)c2cccc(NCc3cc(F)cc(F)c3)n2)C(C)(C)C1 (stereo not drawn) [Compound 2421, N—[[6-[(3,5-difluorophenyl)methylamino]-2-pyridyl]sulfonyl]-2-(2,2,4-trimethylpyrrolidin-1-yl)pyridine-3-carboxamide]
EC30: < 3000 nM

COc1cccc(F)c1-c1ccc(C(=O)NS(=O)(=O)c2ccc[nH]c2=O)c(N2C[C@@H](C)CC2(C)C)n1 [Compound 2422, 6-(2-fluoro-6-methoxy-phenyl)-N-[(2-oxo-1H-pyridin-3-yl)sulfonyl]-2-[(4S)-2,2,4-trimethylpyrrolidin-1-yl]pyridine-3-carboxamide]
EC30: 3000 to 10000 nM

CCCCCCN1CCN(c2cccc(S(=O)(=O)NC(=O)c3cccnc3N3CC(C)CC3(C)C)n2)CC1 (stereo not drawn) [Compound 2423, N—[[6-(4-hexylpiperazin-1-yl)-2-pyridyl]sulfonyl]-2-(2,2,4-trimethylpyrrolidin-1-yl)pyridine-3-carboxamide]
EC30: < 3000 nM

Cc1cccc(-c2ccc(C(=O)NS(=O)(=O)c3ccc[nH]c3=O)c(N3C[C@@H](C)CC3(C)C)n2)c1 [Compound 2424, 6-(m-tolyl)-N-[(2-oxo-1H-pyridin-3-yl)sulfonyl]-2-[(4S)-2,2,4-trimethylpyrrolidin-1-yl]pyridine-3-carboxamide]
EC30: < 3000 nM

Cc1ccc(O)c(-c2ccc(C(=O)NS(=O)(=O)c3cccnc3N)c(N3C[C@@H](C)CC3(C)C)n2)c1 [Compound 2426, N-[(2-amino-3-pyridyl)sulfonyl]-6-(2-hydroxy-5-methyl-phenyl)-2-[(4S)-2,2,4-trimethylpyrrolidin-1-yl]pyridine-3-carboxamide]
EC30: < 3000 nM

CC(C)COc1cc(F)cc(-c2ccc(C(=O)NS(=O)(=O)N3CC[C@@H](O)C3)c(N3C[C@@H](C)CC3(C)C)n2)c1 [Compound 2427, 6-(3-fluoro-5-isobutoxy-phenyl)-N-[(3R)-3-hydroxypyrrolidin-1-yl]sulfonyl-2-[(4S)-2,2,4-trimethylpyrrolidin-1-yl]pyridine-3-carboxamide]
EC30: < 3000 nM

COc1ccc(COc2cccc(S(=O)(=O)NC(=O)c3cccnc3N3CC(C)CC3(C)C)n2)cc1 (stereo not drawn) [Compound 2428, N—[[6-[(4-methoxyphenyl)methoxy]-2-pyridyl]sulfonyl]-2-(2,2,4-trimethylpyrrolidin-1-yl)pyridine-3-carboxamide]
EC30: < 3000 nM

CC1CN(c2ncc(-c3cccc(Cl)c3)cc2C(=O)NS(=O)(=O)c2cccc(N)n2)C(C)(C)C1 (stereo not drawn) [Compound 2429, N-[(6-amino-2-pyridyl)sulfonyl]-5-(3-chlorophenyl)-2-(2,2,4-trimethylpyrrolidin-1-yl)pyridine-3-carboxamide]
EC30: < 3000 nM

COc1cccc(S(=O)(=O)NC(=O)c2cccnc2N2CC(C)CC2(C)C)n1 (stereo not drawn) [Compound 2430]
EC30: 3000 to 10000 nM

COc1cc(F)cc(-c2cnc(N3CC(C)CC3(C)C)c(C(=O)NS(=O)(=O)c3cccc(N)n3)c2)c1 (stereo not drawn) [Compound 2431, N-[(6-amino-2-pyridyl)sulfonyl]-5-(3-fluoro-5-methoxy-phenyl)-2-(2,2,4-trimethylpyrrolidin-1-yl)pyridine-3-carboxamide]
EC30: < 3000 nM

CC(=O)Nc1cccc(Oc2cccc(S(=O)(=O)NC(=O)c3cccnc3N3CC(C)CC3(C)C)n2)c1 (stereo not drawn) [Compound 2433, N—[[6-(3-acetamidophenoxy)-2-pyridyl]sulfonyl]-2-(2,2,4-trimethylpyrrolidin-1-yl)pyridine-3-carboxamide]
EC30: 3000 to 10000 nM

CC1CN(c2ncccc2C(=O)NS(=O)(=O)c2cccc(OCC3(C)CC3)n2)C(C)(C)C1 (stereo not drawn) [Compound 2434, N—[[6-[(1-methylcyclopropyl)methoxy]-2-pyridyl]sulfonyl]-2-(2,2,4-trimethylpyrrolidin-1-yl)pyridine-3-carboxamide]
EC30: < 3000 nM

C[C@@H]1CN(c2nc(-c3ccc(F)cc3)ccc2C(=O)NS(=O)(=O)c2cccnc2N)C(C)(C)C1 [Compound 2435, N-[(2-amino-3-pyridyl)sulfonyl]-6-(4-fluorophenyl)-2-[(4S)-2,2,4-trimethylpyrrolidin-1-yl]pyridine-3-carboxamide]
EC30: < 3000 nM

COc1cccc(-c2ccc(C(=O)NS(=O)(=O)c3cccnc3N)c(N3C[C@@H](C)CC3(C)C)n2)c1OC [Compound 2436, N-[(2-amino-3-pyridyl)sulfonyl]-6-(2,3-dimethoxyphenyl)-2-[(4S)-2,2,4-trimethylpyrrolidin-1-yl]pyridine-3-carboxamide]
EC30: < 3000 nM

C[C@@H]1CN(c2nc(-c3ccccc3C#N)ccc2C(=O)NS(=O)(=O)c2cccnc2N)C(C)(C)C1 [Compound 2437, N-[(2-amino-3-pyridyl)sulfonyl]-6-(2-cyanophenyl)-2-[(4S)-2,2,4-trimethylpyrrolidin-1-yl]pyridine-3-carboxamide]
EC30: < 3000 nM

Cc1ccc(-c2ccc(C(=O)NS(=O)(=O)c3ccc[nH]c3=O)c(N3C[C@@H](C)CC3(C)C)n2)cc1 [Compound 2438, N-[(2-oxo-1H-pyridin-3-yl)sulfonyl]-6-(p-tolyl)-2-[(4S)-2,2,4-trimethylpyrrolidin-1-yl]pyridine-3-carboxamide]
EC30: < 3000 nM

CC1CN(c2ncccc2C(=O)NS(=O)(=O)c2cccc(N[C@H]3CC[C@H](NC(=O)OC(C)(C)C)CC3)n2)C(C)(C)C1 (stereo partly drawn) [Compound 2439, tert-butyl N—[4-[[6-[[2-(2,2,4-trimethylpyrrolidin-1-yl)pyridine-3-carbonyl]sulfamoyl]-2-pyridyl]amino]cyclohexyl]carbamate]
EC30: < 3000 nM

COc1cc(-c2ccc(C(=O)NS(=O)(=O)c3ccc[nH]c3=O)c(N3C[C@@H](C)CC3(C)C)n2)ccc1C [Compound 2440, 6-(3-methoxy-4-methyl-phenyl)-N-[(2-oxo-1H-pyridin-3-yl)sulfonyl]-2-[(4S)-2,2,4-trimethylpyrrolidin-1-yl]pyridine-3-carboxamide]
EC30: < 3000 nM
